Assay [1] relates to rat brain microvascular endothelial cells. The assay is described as follows: Mitochondrial Network Analysis (MiNA) with mitotracker green in cell culture. The assay is classed as cell-based. Particulars: sildenafil 1 μM in 1% DMSO overnight vs vehicle. An excerpt:
Mitochondrial Mechanisms Targeting mbTBI. […] Mitochondrial Network Analysis (MiNA) workflow in ImageJ was used to examine mitochondrial parameters.

Assay [2] deals with TOM20. The assay is described as follows: Capillary-specific mitochondrial content (TOM20 staining) seven days post-rmbTBI. The class given is in vivo, Sprague Dawley rats. As to conditions: 20 mg/kg high dose daily to day seven, vs rmbTBI vehicle. An excerpt:
(§1) Blast Exposure. The MBD consists of a cylindrical steel tube, 12-inch internal diameter, separated into a 19-ft. expansion chamber and a 2.5-ft compression chamber. For these studies, compressed helium-driven mode was used to replicate military blast exposure. A 10-mil-thick (0.254 mm) biaxially-oriented polyethylene terephthalate (Mylar) membrane separates the two chambers. The Mylar membrane was actively ruptured by a 4-point blade affixed to a pneumatic cylinder to achieve desired static overpressure. The shock wave was recorded by face-on, reflected pressure (Kulite pitot-static pressure probe) and wall-mounted side-on static pressure sensors (Kulite). Data from each piezoresistive sensor was routed through sensor cables before being captured by the state-of-the-art TMX-18 (AstroNova™ Test & Measurement, 800 kHz sampling rate) and analyzed using AstroView. The rat subjects were secured in plastic netting to minimize but allow free body motion without neck flexion. The rat subjects were positioned 30 inches inside the tube and with lateral head exposure. An overpressure of 11 PSI was utilized, which is in the range where neurological disruption has been observed in operations involving breaching activity. In the studies underlying this example, Sprague Dawley rats were subjected to repeated blast exposure (2 blasts at 24 h interval). Capillary Isolation. […]

Assay [3] deals with freezing behavior after rmbTBI. Briefly: Contextual fear conditioning test, chronic delayed sildenafil study. The class given is in vivo, Sprague Dawley rats. As to conditions: 20 mg/kg daily; 5 months post-blast; day 1 acquisition, days 2-4 extinction. The method, then:
Animal Procedure. […] MRI (magnetic resonance imaging) was performed at 1.5 and 4.5 months post-blast. Fear conditioning test was performed at 5 months post-blast. At the end of the experiment, rats were euthanized and the brain tissue was collected after transcardial perfusion with PBS (FIG. 24). One hemisphere of the brain was snap frozen with liquid nitrogen for brain capillary isolation while another hemisphere of the brain was fixed with 4% paraformaldehyde (PFA). After 48 hours of fixation, the brain tissue was placed into PBS containing 30% sucrose for 72 hours. The sucrose saturated brain tissue was flash frozen in-25 to −35° C. isopentane and stored at −20° C. or proceeded to sectioning. Fear Conditioning Test. Contextual Fear Conditioning paradigm was performed over 4 days. On the acquisition day, rats were placed in a foot shock chamber with a camera within a sound-attenuating chamber and were allowed to explore freely for 2 min. After 2 min, a total of 6 electric shocks (0.75 mA, 2 s duration) were delivered at intervals of 60 s through the testing chamber floor, with shock delivery controlled by Med associates Inc. VideoFreeze™ Video Fear Conditioning Software. […] Video footage was later scored for freezing behavior using Med associates Inc. VideoFreeze™ Video Fear Conditioning Software. […]

Assay [4] relates to mitochondrial volume and tight junction proteins in isolated brain capillaries. Briefly: Correlation of capillary mitochondrial volume (OXPHOS) and ZO-1, chronic delayed sildenafil study. The assay is classed as in vivo, Sprague Dawley rats. Particulars: 20 mg/kg oral gavage daily from 2 to 5 months post-blast; brain capillaries at 5 months post-rmbTBI.
Protocol: Brain Capillary Isolation and Immunostaining. Half frozen rat brain from all groups was homogenized with isolation buffer (pH7.4 DPBS containing 5.5 mM glucose, 1 mM sodium pyruvate, and 1% BSA). The homogenate was centrifuged at 1000×g for 10 min at 4° C. to remove the supernatant. […] After evaluating the quality and concentration of capillary suspension under a bright field microscope, which may contain small amount of large vessel and cells, the isolated capillary sample was ready for the immunostaining analysis. […]
The expression of ZO-1 was quantified by measuring the mean fluorescence intensity by tracing the capillary under NIS-Elements analysis software. The total capillary area was measured by using NIS-Elements. For mitochondrial volume, the OXPHOS fluorescence from Z-stack images was quantified using Imaris (X64 9.6.1) using surface creation tool. […]
For assay [5], the system named is GFAP. Briefly: Western blot for GFAP in cortical tissue seven days post-rmbTBI. The class given is in vivo, Sprague Dawley rats. Particulars: rmbTBI (2 blasts, 24 h interval), vs rmbTBI vehicle. In general terms: In western blotting, separated proteins are transferred to a membrane and probed.
Text: Blast Exposure. The MBD consists of a cylindrical steel tube, 12-inch internal diameter, separated into a 19-ft. expansion chamber and a 2.5-ft compression chamber. For these studies, compressed helium-driven mode was used to replicate military blast exposure. A 10-mil-thick (0.254 mm) biaxially-oriented polyethylene terephthalate (Mylar) membrane separates the two chambers. The Mylar membrane was actively ruptured by a 4-point blade affixed to a pneumatic cylinder to achieve desired static overpressure. The shock wave was recorded by face-on, reflected pressure (Kulite pitot-static pressure probe) and wall-mounted side-on static pressure sensors (Kulite). Data from each piezoresistive sensor was routed through sensor cables before being captured by the state-of-the-art TMX-18 (AstroNova™ Test & Measurement, 800 kHz sampling rate) and analyzed using AstroView. The rat subjects were secured in plastic netting to minimize but allow free body motion without neck flexion. The rat subjects were positioned 30 inches inside the tube and with lateral head exposure. […] Expression of peroxisome proliferator-activated receptor gamma coactivator 1-alpha (PGC-1α), glial fibrillary acidic protein (GFAP), and β-actin was assessed in cortical tissue using western blot. […] Expression of PGC-1a and β-actin was also assessed using in the hippocampal tissue of subjects using western blot. […]
The subject of assay [6] is PGC-1α. Briefly: Western blot for PGC-1α in cortical and hippocampal tissue seven days post-rmbTBI. As to conditions: vs rmbTBI vehicle; for PGC-1α expression in cortex tissue: rmbTBI (2 blasts, 24 h interval). The class given is in vivo, Sprague Dawley rats.
Text: Blast Exposure. The MBD consists of a cylindrical steel tube, 12-inch internal diameter, separated into a 19-ft. expansion chamber and a 2.5-ft compression chamber. For these studies, compressed helium-driven mode was used to replicate military blast exposure. A 10-mil-thick (0.254 mm) biaxially-oriented polyethylene terephthalate (Mylar) membrane separates the two chambers. The Mylar membrane was actively ruptured by a 4-point blade affixed to a pneumatic cylinder to achieve desired static overpressure. The shock wave was recorded by face-on, reflected pressure (Kulite pitot-static pressure probe) and wall-mounted side-on static pressure sensors (Kulite). Data from each piezoresistive sensor was routed through sensor cables before being captured by the state-of-the-art TMX-18 (AstroNova™ Test & Measurement, 800 kHz sampling rate) and analyzed using AstroView. The rat subjects were secured in plastic netting to minimize but allow free body motion without neck flexion. The rat subjects were positioned 30 inches inside the tube and with lateral head exposure. An overpressure of 11 PSI was utilized, which is in the range where neurological disruption has been observed in operations involving breaching activity. In the studies underlying this example, Sprague Dawley rats were subjected to repeated blast exposure (2 blasts at 24 h interval). Tissue Isolation. For downstream western blot, whole brain homogenate was collected during brain capillary isolation and mixed with 10× RIPA buffer (150 mM NaCl, 1% Triton X-100, 0.5% sodium deoxycholate, 0.1% SDS, 50 mM Tris, pH 8.0) supplemented with protease inhibitors. The samples were snap-frozen in liquid nitrogen and stored at −80° C. until further use. Mitochondrial Biogenesis and Astrocyte Homeostasis. […] Expression of peroxisome proliferator-activated receptor gamma coactivator 1-alpha (PGC-1α), glial fibrillary acidic protein (GFAP), and β-actin was assessed in cortical tissue using western blot. Cortical tissue was extracted and probed seven days post-rmbTBI. Expression of PGC-1a and β-actin was also assessed using in the hippocampal tissue of subjects using western blot. Hippocampal tissue was extracted and probed seven-days post-rmbTBI.
For assay [7], the system named is ZO-1. Briefly: Tight junction integrity (ZO-1 immunostaining of cortical capillaries) seven days post-rmbTBI. The class given is in vivo, Sprague Dawley rats. As to conditions: 20 mg/kg high dose daily to day seven, vs rmbTBI vehicle.
Text: as §1

In assay [8] the test system is cerebral blood flow (CBF). The assay is described as follows: MRI arterial spin labeling of cerebral blood flow, chronic delayed sildenafil study. Particulars: 20 mg/kg daily, 2 and 4.5 months post-rmbTBI, between sham, rmbTBI+vehicle. The assay is classed as in vivo, Sprague Dawley rats.
Protocol: Animal Procedure. […] MRI (magnetic resonance imaging) was performed at 1.5 and 4.5 months post-blast. […] At the end of the experiment, rats were euthanized and the brain tissue was collected after transcardial perfusion with PBS (FIG. 24). One hemisphere of the brain was snap frozen with liquid nitrogen for brain capillary isolation while another hemisphere of the brain was fixed with 4% paraformaldehyde (PFA). After 48 hours of fixation, the brain tissue was placed into PBS containing 30% sucrose for 72 hours. The sucrose saturated brain tissue was flash frozen in-25 to −35° C. isopentane and stored at −20° C. or proceeded to sectioning.
Magnetic Resonance Imaging (MRI). MRI scanning was performed at 1.5 months and 4.5 months post-blast injury. Briefly, rats were placed under anesthesia with 4% isoflurane before placing it in the MRI scanner. Physiological monitoring was recorded every 10 min (with normal range 300-450 bpm) and rat body temperature was maintained while scanning under anesthesia. […] Labeling efficiency was calculated from a pCASL-encoded fast low-angle shot (FLASH) sequence (TR/TE=250/3.5 ms; in plane resolution 182×182 μm2; slice thickness 1.5 mm; flip angle 80° labeling time 200 ms; transit time 0 ms) image of the carotid artery just below the split and 5 mm above the labeling slice. […]
[9] abbreviates: 5 mg/kg low dose daily to day seven.
Where [10] appears, read: 20 mg/kg high dose daily to day seven.

Entries after “also recorded” stand apart in the source; their conditions may differ.

Regarding `CCCc1nn(C)c2c(=O)[nH]c(-c3cc(S(=O)(=O)N4CCN(C)CC4)ccc3OCC)nc12` [sildenafil], the mitochondrial branching entry in assay [1] is “decreased”. The mitochondrial footprint/density entry in assay [1] is given as “increased”. The “TOM20 expression / capillary mitochondrial volume” value in assay [2] was “significantly increased; also recorded: increased volume”. In addition, in assay [3], the “freezing episodes (fear extinction)” value was “significant time-related decrease”. Besides, in assay [4], the “correlation between capillary mitochondrial content (OXPHOS) and tight junction integrity (ZO-1)” value is on record as “significant positive correlation; also recorded: strengthens the correlation”. Also, the “GFAP expression in cortex tissue” value in assay [5] (setting [9]) and in assay [5] (setting [10]) was “increased” throughout. The “PGC-1α expression in cortex tissue” value in assay [6] (setting [9]) and in assay [6] (setting [10]) was “increased” each time. Also, in assay [6] (20 mg/kg high dose daily to day seven, rmbTBI), the “PGC-1α expression in hippocampal tissue” value is reported as “significantly increased”. For the same compound, the “ZO-1 expression in cortical capillaries” value in assay [7] is “increased; also recorded: non-significantly increased”. Further, the “regional cerebral blood flow (CBF) in cortex, hippocampus and amygdala” value in assay [8] was “No significant differences”.

(Values after patent US20250381194A1, “METHODS FOR MITIGATING THE EFFECTS OF LOW-LEVEL BLASTS THROUGH PHOSPHODIESTERASE-5 INHIBITION” (University of Kentucky Research Foundation, priority 2024, published 2025).)
